IC50, inhibition and ED50 data for eight compounds are collected here from ChEMBL document CHEMBL1145254, “5-Lipoxygenase inhibitors: convenient synthesis of 4-[3-(4-heterocyclylphenylthio)phenyl]-3,4,5,6-tetrahydro-2H-pyran-4-carboxamide analogues” (Bioorg Med Chem Lett, 2005).

In experiment [1] the target is T1, Polyunsaturated fatty acid 5-lipoxygenase (Homo sapiens, UniProt P09917).
T1 sequence (P09917 whole entry): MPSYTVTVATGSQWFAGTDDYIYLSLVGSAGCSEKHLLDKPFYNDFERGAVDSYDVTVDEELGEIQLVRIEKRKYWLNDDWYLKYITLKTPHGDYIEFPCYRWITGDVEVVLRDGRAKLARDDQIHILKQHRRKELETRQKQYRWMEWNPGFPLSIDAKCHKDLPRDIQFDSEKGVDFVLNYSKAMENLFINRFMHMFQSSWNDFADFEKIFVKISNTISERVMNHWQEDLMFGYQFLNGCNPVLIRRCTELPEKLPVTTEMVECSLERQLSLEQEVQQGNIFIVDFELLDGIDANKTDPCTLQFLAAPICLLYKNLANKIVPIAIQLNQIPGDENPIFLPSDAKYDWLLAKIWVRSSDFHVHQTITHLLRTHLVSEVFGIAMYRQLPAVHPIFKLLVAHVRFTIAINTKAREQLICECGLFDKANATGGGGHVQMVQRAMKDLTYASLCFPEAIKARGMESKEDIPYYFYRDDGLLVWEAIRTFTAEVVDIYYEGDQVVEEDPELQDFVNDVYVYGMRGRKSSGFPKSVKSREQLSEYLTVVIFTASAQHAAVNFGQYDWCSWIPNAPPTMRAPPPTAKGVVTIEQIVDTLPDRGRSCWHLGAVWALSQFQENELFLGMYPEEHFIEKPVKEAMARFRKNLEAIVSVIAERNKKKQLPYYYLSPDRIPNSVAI
Put plainly: (§1) Inhibition of 5-lipoxygenase mediated LTB4 synthesis in A-23187 simulated human whole blood. In kind it is functional, tissue-based.

Experiment [2] addresses T2, Polyunsaturated fatty acid 5-lipoxygenase (Homo sapiens) (UniProt P09917).
T2 sequence (whole entry): T1 sequence (P09917 whole entry)
The note with it: Blood, 1 uM.

For experiment [3], the target named is T3, Polyunsaturated fatty acid 5-lipoxygenase (Mus musculus) (UniProt P48999).
T3 sequence (whole entry): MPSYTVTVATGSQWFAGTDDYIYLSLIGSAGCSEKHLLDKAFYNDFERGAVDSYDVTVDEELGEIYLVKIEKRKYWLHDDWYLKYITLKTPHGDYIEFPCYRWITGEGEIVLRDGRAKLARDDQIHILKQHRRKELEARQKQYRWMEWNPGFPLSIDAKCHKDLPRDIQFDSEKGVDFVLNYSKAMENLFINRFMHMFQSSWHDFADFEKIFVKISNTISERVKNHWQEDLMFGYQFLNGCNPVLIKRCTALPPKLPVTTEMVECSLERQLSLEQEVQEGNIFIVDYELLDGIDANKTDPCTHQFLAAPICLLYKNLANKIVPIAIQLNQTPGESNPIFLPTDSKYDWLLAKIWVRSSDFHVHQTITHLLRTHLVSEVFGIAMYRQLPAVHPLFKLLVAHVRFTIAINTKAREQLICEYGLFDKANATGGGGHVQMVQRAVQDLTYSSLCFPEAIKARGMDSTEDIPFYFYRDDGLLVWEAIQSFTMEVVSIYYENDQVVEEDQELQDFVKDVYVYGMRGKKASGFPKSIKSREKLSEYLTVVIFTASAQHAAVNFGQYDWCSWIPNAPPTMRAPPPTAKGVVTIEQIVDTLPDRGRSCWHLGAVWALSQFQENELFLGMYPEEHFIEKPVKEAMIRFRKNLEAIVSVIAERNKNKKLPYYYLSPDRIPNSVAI
Put plainly: Inhibition of 5-lipoxygenase-mediated platelet activating factor induced thrombosis in male mice. It is filed as functional.

Experiment [4] addresses T2, Polyunsaturated fatty acid 5-lipoxygenase (Homo sapiens). Put plainly: Inhibition of 5-lipoxygenase mediated LTB4 synthesis in A-23187 simulated human whole blood at 1 uM concentration. It is filed as functional, tissue-based.
Experiment [5] shares this target. The description is as §1. In kind it is functional, tissue-based. Particulars: concentration not given here.

Structures are written as SMILES.

Turning to `Cc1nccn1-c1ccc(Sc2cccc(C3(C(N)=O)CC4CCC(C3)O4)c2)cc1` (stereo unspecified), the IC50 (in general, the concentration needed to halve the response being measured) in experiment [1] was more than 1000 nM. Also, in experiment [2], the inhibition (usually the change of the read-out against control, counted positive when it falls) is -7%.

Consider `Cc1nccn1Cc1ccc(Sc2cccc(C3(C(N)=O)CCOCC3)c2)cc1`, for which the IC50 in experiment [1] is 140 nM. The median effective dose (ED50) (usually the dose at which the effect has come halfway, by size or by number of responders) in experiment [3] is more than 20 mg/kg.

Turning to `Cc1nccn1-c1ccc(Sc2cccc([C@]3(C(N)=O)CC4CC[C@H](C3)O4)c2)cc1`, half-maximal inhibition in experiment [1] (IC50) was put at 830 nM. The compound also showed an ED50 in experiment [3] of 7 mg/kg.

`NC(=O)C1(c2cccc(Sc3ccc(Cn4cccc4)cc3)c2)CCOCC1` yielded an IC50 in experiment [1] of 270 nM. The median effective dose (ED50) in experiment [3] stood at 3 mg/kg.

With `CO/N=C/C1(c2cccc(Sc3ccc(-n4ccnc4C)cc3)c2)CCOCC1`, the IC50 in experiment [1] was 150 nM. For the same compound, in experiment [3], the 50% effect level (ED50) was put at a dose of 2 mg/kg.

In the case of `Cc1nccn1-c1ccc(Sc2cccc(C3(C(N)=O)CCOCC3)c2)cc1`, the IC50 in experiment [1] is 230 nM. The compound further yielded a median effective dose (ED50) in experiment [3] of 3.7 mg/kg.

Compound `NC(=O)C1(c2cccc(Sc3ccc(-n4cnnc4)cc3)c2)CCOCC1` had an IC50 in experiment [1] of more than 1000 nM. Besides, the inhibition in experiment [4] is 1%.

`Cc1cc(C)n(-c2ccc(Sc3cccc(C4(C(N)=O)CCOCC4)c3)cc2)n1` had a half-inhibitory concentration (IC50) in experiment [1] of more than 1000 nM. Also, in experiment [5], the inhibition is -1%.
